Values after ≈ are worked out from the molar mass of the structure shown. Blank lines part the entries; values can stand above or below the molecule they belong to.
What was measured:
[1] = Cytotoxicity against African green monkey Vero cells; type: toxicity, cell-based; details: chlorocebus sabaeus
Plasmodium falciparum [2] = experiment: Antiplasmodial activity against CQ-resistant Plasmodium falciparum K1 assessed as parasite growth inhibition; type: functional, organism-based
[3] = Cytotoxicity against human Huh-7 cells incubated for 48 hrs by MTT assay; type: toxicity, cell-based
Plasmodium falciparum [4] = experiment: Antiplasmodial activity against Plasmodium falciparum 3D7 assessed as parasite growth inhibition incubated for 24 hrs by [3H]-hypoxanthine incorporation assay; type: functional, organism-based
Falcipain 2 = target: T1, Falcipain 2 (Plasmodium falciparum, UniProt Q9N6S8); experiment: Inhibition of recombinant Plasmodium falciparum FP2
T1 sequence (Q9N6S8 whole entry): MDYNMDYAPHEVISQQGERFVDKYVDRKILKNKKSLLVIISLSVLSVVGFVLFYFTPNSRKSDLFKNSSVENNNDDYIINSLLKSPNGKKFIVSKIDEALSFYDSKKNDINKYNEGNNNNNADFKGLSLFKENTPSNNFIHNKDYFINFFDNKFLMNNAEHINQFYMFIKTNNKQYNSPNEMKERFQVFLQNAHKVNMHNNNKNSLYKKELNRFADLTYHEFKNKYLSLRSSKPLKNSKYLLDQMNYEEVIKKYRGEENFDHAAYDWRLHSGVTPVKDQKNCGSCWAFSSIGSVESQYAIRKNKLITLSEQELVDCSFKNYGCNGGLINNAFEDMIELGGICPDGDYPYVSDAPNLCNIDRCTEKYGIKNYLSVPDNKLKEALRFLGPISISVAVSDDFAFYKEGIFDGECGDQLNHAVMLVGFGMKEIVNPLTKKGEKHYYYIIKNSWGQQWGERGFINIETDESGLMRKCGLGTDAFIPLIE

Plasmodium falciparum [5] = experiment: Antiplasmodial activity against Plasmodium falciparum 3D7 assessed as parasite growth inhibition; type: functional, organism-based
[6] = Selectivity index, ratio of CC50 for human erythrocytes to IC50 for Plasmodium falciparum Dd2; type: toxicity; details: read-out: Ratio CC50/IC50
Plasmodium falciparum [7] = experiment: Antiplasmodial activity against CQ-resistant Plasmodium falciparum W2 infected in red blood cells assessed as parasite growth inhibition incubated for 72 hrs by SYBR Green I staining based analysis; type: functional, organism-based, Red blood cell; details: W2, Erythrocyte
Plasmodium falciparum [8] = experiment: Antiplasmodial activity against CQ-sensitive Plasmodium falciparum 3D7 infected in red blood cells assessed as parasite growth inhibition incubated for 72 hrs by SYBR Green I staining based analysis; type: functional, organism-based, Red blood cell; details: 3D7, Erythrocyte

SMILES: COc1cc(/C=C/C(=O)c2ccc(Cl)cc2)ccc1OCc1cn(-c2ccnc3cc(Cl)ccc23)nn1
- CC50 [1]: 46.2 µM
- IC50 (Plasmodium falciparum [2]): 3.14 µM

SMILES: Cc1ccc(OCc2cn(-c3ccc(S(N)(=O)=O)cc3)nn2)cc1
- CC50 at 48 h [3]: 7.5 µg/mL (≈ 21.8 µM)
- IC50 (Plasmodium falciparum [4]): 6.2 µg/mL (≈ 18 µM)

- IC50 (Falcipain 2): 16.2 µM
SMILES: O=[N+]([O-])c1ccc(-n2cc(COc3cccc4nc(Cl)ccc34)nn2)cc1
- IC50 (Plasmodium falciparum [5]): 49.9 µM

SMILES: O=[N+]([O-])c1ccc(Cn2cc(CO)nn2)cc1
- selectivity ratio [6]: 161

SMILES: OB1OCc2cc(OCc3cn(CCCNc4ccnc5cc(Cl)ccc45)nn3)ccc21
- IC50 (Plasmodium falciparum [7]): 3.91 µM
- IC50 (Plasmodium falciparum [8]): 4.13 µM

Reference: ChEMBL document CHEMBL5532638, “Current development of 1,2,3-triazole derived potential antimalarial scaffolds: Structure- activity relationship (SAR) and bioactive compounds” (Eur J Med Chem, 2023)
